pKi: −log10 of the molar value.
Key:
[1] = tested on: 41 diverse receptors, channels and a transporter; test: PDSP broad screen: summary of off-target interactions; details: besides 5HT2B and 5HT2C
[2] = tested on: peripheral cholecystokinin receptors; details: cited from earlier work
[3] = biological target: 5HT2B serotonergic receptor (Homo sapiens, UniProt P41595); test: PDSP radioligand binding, 5HT2B; details: full concentration-response curves, n = 3-6 unless noted
sigma (σ) receptors = details: cited from earlier work
[4] = biological target: T1, 5HT2C serotonergic receptor (Homo sapiens, UniProt P28335); test: PDSP radioligand binding, 5HT2C; details: full concentration-response curves, n = 3-6 unless noted
T1 sequence (P28335 33-458): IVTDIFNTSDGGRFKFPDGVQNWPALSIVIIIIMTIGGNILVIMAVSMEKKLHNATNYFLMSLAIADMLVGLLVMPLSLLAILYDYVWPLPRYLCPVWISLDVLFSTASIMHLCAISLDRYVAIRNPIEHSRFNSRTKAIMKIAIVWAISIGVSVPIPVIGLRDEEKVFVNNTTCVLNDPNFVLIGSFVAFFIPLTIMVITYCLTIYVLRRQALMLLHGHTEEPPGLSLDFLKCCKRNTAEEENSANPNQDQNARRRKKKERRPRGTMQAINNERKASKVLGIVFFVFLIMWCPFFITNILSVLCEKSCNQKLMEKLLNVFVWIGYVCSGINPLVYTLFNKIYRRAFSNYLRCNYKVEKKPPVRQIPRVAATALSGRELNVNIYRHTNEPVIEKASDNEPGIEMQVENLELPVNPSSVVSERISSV

Chain of 5HT2B serotonergic receptor (P41595 whole entry): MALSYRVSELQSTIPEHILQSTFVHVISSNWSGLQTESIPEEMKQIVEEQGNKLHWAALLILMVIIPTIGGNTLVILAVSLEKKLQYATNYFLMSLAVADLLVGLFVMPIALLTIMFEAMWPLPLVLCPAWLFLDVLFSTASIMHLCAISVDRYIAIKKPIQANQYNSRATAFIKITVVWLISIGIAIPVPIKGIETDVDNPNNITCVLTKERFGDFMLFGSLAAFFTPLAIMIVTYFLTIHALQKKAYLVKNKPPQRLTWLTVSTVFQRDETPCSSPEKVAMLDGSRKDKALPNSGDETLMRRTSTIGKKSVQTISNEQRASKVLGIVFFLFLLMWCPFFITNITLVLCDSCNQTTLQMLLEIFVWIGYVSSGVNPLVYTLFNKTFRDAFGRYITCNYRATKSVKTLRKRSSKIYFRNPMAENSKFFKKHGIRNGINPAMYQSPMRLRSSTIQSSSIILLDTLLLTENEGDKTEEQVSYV

CNC(=O)[C@H]1O[C@@H](n2cnc3c(NCc4cccc(I)c4)ncnc32)[C@H](O)[C@@H]1O [IB-MECA, N ^6-(3-iodobenzyl)-5′-N-methylcarboxamidoadenosine]
other off-target interactions in pharmacological screening [1]: no other off-target interactions
binding inhibition at 10 µM [2]: 50–70%
pKi [3]: 5.97
binding inhibition at 10 µM (sigma (σ) receptors): 50–70%
pKi [4]: 5.27
